How the values were obtained:
MDA-MB-435 = experiment: NCI 60 cell line panel screen (SRB); format: cell-based, human; conditions: for Log10GI50: Breast Cancer, MDA-MB-435
M14 = experiment: NCI 60 cell line panel screen (SRB); format: cell-based, human; conditions: for Log10TGI50: M-14 (Melanoma), TGI: PG=0; for Log10GI50: Melanoma, M14
KM12 = experiment: NCI 60 cell line panel screen (SRB); format: cell-based, human; conditions: for Log10TGI50: TGI: PG=0
TK-10 = experiment: NCI 60 cell line panel screen (SRB); format: cell-based, human; conditions: for Log10GI50: Renal Cancer, TK-10
UO-31 = experiment: NCI 60 cell line panel screen (SRB); format: cell-based, human; conditions: for Log10GI50: Renal Cancer, UO-31
COLO 205 = experiment: NCI 60 cell line panel screen (SRB); format: cell-based, human
U251 = experiment: NCI 60 cell line panel screen (SRB); format: cell-based, human
OVCAR-5 = experiment: NCI 60 cell line panel screen (SRB); format: cell-based, human; conditions: for Log10TGI50: TGI: PG=0
MALME-3M = experiment: NCI 60 cell line panel screen (SRB); format: cell-based, human; conditions: MALME-3M (Melanoma); for Log10TGI50: TGI: PG=0
MOLT-4 = conditions: for Log10GI50: Leukemia, MOLT-4; for Log10TGI50: TGI: PG=0
Method: Growth Inhibition. […] The screening assay is performed on 96-well microtitre plates. Relatively high initial inoculation densities are used, in order to permit measurement of “time-zero” values and to enhance the screen's ability to detect and provide some differentiation between growth inhibition and cytotoxic response parameters. […] The inoculated microtitre plates are pre-incubated for 24 hours at 37° C. prior to drug additions. The five drug dilutions tested routinely range from 10^−4 to 10^−8 molar. Higher or lower concentration ranges may be selected on a non-routine basis if appropriate solubility and/or prior biological information or other screening data so dictate. Duplicate wells are prepared for all concentrations, (concentration is often denoted by placing brackets around a number); “time-zero” and “no drug” controls are also provided for each test. The minimum amount of compound required for a one-time evaluation in the routine screen can be calculated from the knowledge that each test requires a total of approximately 40 ml (0.04 liter) of cell culture medium containing the highest desired drug concentration. […] After a 48 hour incubation (37° C.) with the test compound, the cells are fixed in situ to the bottoms of the microtitre wells by addition of 50 μl of either 50% trichloroacetic acid (for adherent cell lines) or 80% trichloroacetic acid (for settled cell suspension lines), followed by incubation for 60 minutes at 4° C. The cellular protein in each well is assayed using a sulforhodamine B (SRB) stain procedure. Briefly, after discarding the supernatants, the microtitre plates are washed 5 times with deionized water and air-dried. […] Unbound SRB is removed by washing 5 times with 1% acetic acid. […] SRB is a bright pink anionic dye which, in dilute acetic acid, binds electrostatically to the basic amino acids of TCA-fixed cells. Cryopreserved master stocks of all the lines are maintained, and cultures used for screening are replaced from the master stock after no more than twenty passages in the screening laboratory. The cell line panel consists of 60 lines, organized into nine, disease-related subpanels including leukemia, non-small-cell lung cancer, colon, CNS, melanoma, ovarian, renal, prostate and breast cancers.
At this value the increase from time tzero, in the number or mass of cells in the test well is only 50% as much as the corresponding increase in the control well during this period of the experiment, see Table III. A drug effect of this intensity is interpreted as primary growth inhibition.
At this value the number or mass of cells in the well at the end of the experiment equals the number or mass of cells in the well at time tzero, see Table IV. A drug effect of this intensity is regarded as cytostasis.
At this value, the number or mass of cells in the test well at the end of the experiment is half that at time tzero, see Table V. This is interpreted as cytotoxicity.
Dose response curves, shown in the above mentioned Figures, are obtained by exposing various cancer cell lines to compounds having a known concentration ([log10M]), as discussed in detail above, and then plotting the percentage growth of each cell line for each concentration. […] Percentage growth is determined by dividing the number or mass of cells in the test well by the number or mass of cells in a control well. […] As discussed previously, the five drug dilutions routinely tested range from 10^−4 to […].

NCI-H522 = experiment: NCI 60 cell line panel screen (SRB); format: cell-based, human; conditions: for Log10TGI50: NCI-H522 (Non-Small Cell Lung Cancer), TGI: PG=0; for Log10GI50: Non-Small Cell Lung Cancer, NCI-H522
HL-60(TB) = experiment: NCI 60 cell line panel screen (SRB); format: cell-based, human; conditions: for Log10TGI50: TGI: PG=0
MCF7 = experiment: NCI 60 cell line panel screen (SRB); format: cell-based, human; conditions: for Log10GI50: Breast Cancer, MCF7
CCRF-CEM = experiment: NCI 60 cell line panel screen (SRB); format: cell-based, human; conditions: for Log10TGI50: TGI: PG=0
SK-MEL-2 = experiment: NCI 60 cell line panel screen (SRB); format: cell-based, human; conditions: for Log10GI50: Melanoma, SK-MEL-2
HS 578T = experiment: NCI 60 cell line panel screen (SRB); format: cell-based, human
A549/ATCC = experiment: NCI 60 cell line panel screen (SRB); format: cell-based, human

Work on `CC(=O)O[C@H]1C(=O)[C@@]2(C)[C@H]([C@H](OC(=O)c3ccccc3)[C@]3(O)C[C@H](OC(=O)[C@H](O)[C@@H](NC(=O)c4ccccc4)c4ccccc4)C(C)=C1C3(C)C)[C@]1(OC(C)=O)CO[C@@H]1C[C@@H]2O` [Paclitaxel, paclitaxel, reference compound] yielded a Log10GI50 (MDA-MB-435) of under −13.00, a Log10LC50 (M14; M14 (Melanoma), LC50: PG=−50) of −4.13 log10M and a Log10TGI50 (M14) of −4.62 log10M. For the same compound, the Log10GI50 (M14) was −11.73, the Log10GI50 (KM12; Colon Cancer, KM12) was −11.43 and the Log10LC50 (KM12; KM12 (Colon Cancer), LC50: PG=−50) was over −4.00 log10M. For the same compound, the Log10TGI50 (KM12; KM12 (Colon Cancer)) was −4.36 log10M, the Log10GI50 (TK-10) was −7.89 and the Log10GI50 (UO-31) was −6.09. The Log10LC50 (COLO 205; COLO 205 (Colon Cancer), LC50: PG=−50) was over −4.41 log10M, the Log10GI50 (COLO 205; Colon Cancer, COLO 205) was −11.07 and the Log10GI50 (U251; CNS Cancer, U251) was −11.29. The Log10LC50 (U251; U251 (CNS Cancer), LC50: PG=−50) was −4.15 log10M, the Log10TGI50 (U251; U251 (CNS Cancer), TGI: PG=0) was −4.32 log10M and the Log10LC50 (OVCAR-5; OVCAR-5 (Ovarian Cancer), LC50: PG=−50) was over −4.00 log10M. For the same compound, the Log10TGI50 (OVCAR-5; OVCAR-5 (Ovarian Cancer)) was −4.92 log10M, the Log10GI50 (OVCAR-5; Ovarian Cancer, OVCAR-5) was −9.38 and the Log10LC50 (MALME-3M; LC50: PG=−50) was −4.11 log10M. The Log10TGI50 (MALME-3M) was −4.46 log10M, the Log10GI50 (MOLT-4) was −11.07 and the Log10LC50 (MOLT-4; MOLT-4 (Leukemia), LC50: PG=−50) was over −4.00 log10M. The Log10TGI50 (MOLT-4; MOLT-4 (Leukemia)) was over −4.00 log10M, the “drug concentration for primary growth inhibition (percentage growth +50)” value (MOLT-4; MOLT-4, from dose response curves FIGS. 7a-7i) was 10^−11 molar and the “concentration for cytotoxicity (percentage growth −50)” value (MOLT-4; human, 48 h) was “greater than 10^−4 M”. It also gave a Log10TGI50 (NCI-H522) of −11.20 log10M, a Log10LC50 (NCI-H522; NCI-H-522 (Non-Small Cell Lung Cancer), LC50: PG=−50) of over −4.00 log10M and a Log10GI50 (NCI-H522) of under −13.00. The Log10LC50 (HL-60(TB); HL-60(TB) (Leukemia), LC50: PG=−50) was over −4.53 log10M, the Log10TGI50 (HL-60(TB); HL-60(TB) (Leukemia)) was −4.53 log10M and the Log10GI50 (HL-60(TB); Leukemia, HL-60(TB)) was −11.57. For the same compound, the Log10GI50 (MCF7) was −11.69, the Log10LC50 (MCF7; MCF7 (Breast Cancer), LC50: PG=−50) was over −4.00 log10M and the Log10LC50 (CCRF-CEM; CCRF-CEM (Leukemia), LC50: PG=−50) was over −4.00 log10M. For the same compound, the Log10TGI50 (CCRF-CEM; CCRF-CEM (Leukemia)) was over −4.00 log10M, the Log10GI50 (CCRF-CEM; Leukemia, CCRF-CEM) was −11.61 and the Log10GI50 (SK-MEL-2) was −9.53. The Log10LC50 (SK-MEL-2; SK-MEL2 (Melanoma), LC50: PG=−50) was over −4.00 log10M.

For `CC1CCC2C(C)C(CC(COCC(=O)O)CC3OC4OC5(C)CCC6C(C)CCC(C3C)C46OO5)OC3OC4(C)CCC1C32OO4` (stereo not drawn) [Compound 12b, bis-trioxane O-acetic acid], the Log10GI50 (HS 578T; Breast Cancer, HS 578T) was over −4.30, the Log10TGI50 (HS 578T; HS 578T (Breast Cancer), TGI: PG=0) was over −4.30 log10M and the Log10TGI50 (A549/ATCC; A549/ATCC (Non-Small Cell Lung Cancer), TGI: PG=0) was over −4.30 log10M. The Log10GI50 (A549/ATCC; Non-Small Cell Lung Cancer, A549/ATCC) was over −4.30, the Log10GI50 (MDA-MB-435) was −6.97 and the Log10TGI50 (MDA-MB-435; MDA-MB-435 (Breast Cancer), TGI: PG=0) was over −4.30 log10M. It also gave a Log10TGI50 (M14) of over −4.30 log10M, a Log10GI50 (M14) of −6.68 and a Log10TGI50 (KM12; KM12 (Colon Cancer)) of under −8.30 log10M. It also gave a Log10GI50 (TK-10) of −7.22, a Log10TGI50 (TK-10; TK-10 (Renal Cancer), TGI: PG=0) of −5.22 log10M and a Log10GI50 (UO-31) of −5.84. For the same compound, the Log10TGI50 (UO-31; UO-31 (Renal Cancer), TGI: PG=0) was over −4.30 log10M, the Log10TGI50 (COLO 205; COLO 205 (Colon Cancer), TGI: PG=0) was −5.28 log10M and the Log10TGI50 (OVCAR-5; OVCAR-5 (Ovarian Cancer)) was −6.39 log10M. The Log10TGI50 (MALME-3M) was −6.40 log10M, the Log10GI50 (MOLT-4) was −7.66 and the Log10TGI50 (MOLT-4; MOLT-4 (Leukemia)) was over −4.30 log10M. The Log10TGI50 (NCI-H522) was over −4.30 log10M, the Log10GI50 (NCI-H522) was over −4.30 and the Log10TGI50 (HL-60(TB); HL-60(TB) (Leukemia)) was under −8.30 log10M. The Log10GI50 (MCF7) was −7.37, the Log10TGI50 (MCF7; MCF7 (Breast Cancer), TGI: PG=0) was over −4.30 log10M and the Log10TGI50 (CCRF-CEM; CCRF-CEM (Leukemia)) was over −4.30 log10M. The Log10GI50 (SK-MEL-2) was −5.62 and the Log10TGI50 (SK-MEL-2; SK-MEL-2 (Melanoma), TGI: PG=0) was over −4.30 log10M.

— patent US7417156B2, “Orally active, antimalarial, anticancer, artemisinin-derived trioxane dimers” (Johns Hopkins University, priority 2002, dated 2008)
